Results published in US6359196B1, “Germination-specific plant promoters” (priority 1999, dated 2002).

What was measured:
[1] = test system: barley α-glucosidase gene promoter; test: Transient expression in barley aleurone protoplasts, constructs with the α-glucosidase gene promoter; type: cell-based; conditions: protoplasts incubated in the presence of gibberellic acid, 25° C., 40 hours
Text: It is possible to evaluate the expression levels directed by the barley α-glucosidase gene promoter by several methods. One such method is by transient expression assays performed with protoplasts prepared from aleurone layers of the barley cultivar Himalaya. This approach is not only used to evaluate the ability of different promoters to function in barley endosperm-derived tissues, including the aleurone tissue, but also to determine whether an expressed protein is secreted from the plant cell or whether the protein remains in the cell cytoplasm.
Protoplasts are transfected with a gene cassette of interest and incubated to allow the introduced gene to be expressed, and the corresponding protein allowed to accumulate in the cell or in the surrounding liquid medium. Following incubation at 25° C. for 40 hours in the presence or absence of gibberellic acid, the cells and the growth medium are assayed for the presence of the protein encoded by the transgene in order to determine the efficiency of the promoter which drives transgene expression.
A protocol for the preparation and transfection of barley aleurone protoplasts has been published by Skriver et al., (1991, supra). […]

[2] = test system: barley cystatin-1 gene promoter; test: Transient expression in barley aleurone protoplasts, cys1 promoter deletion constructs fused to β-glucuronidase, normalised to luciferase; type: cell-based; conditions: 1 μM phytohormone, 40-hour incubation at 20° C.; β-glucuronidase activity divided by luciferase activity
Description: Barley aleurone protoplasts were prepared as described in Example 4, and separate protoplast aliquots were co-transfected with plasmid pAHC18 carrying the luciferase gene under control of the gene promoter derived from a constitutively expressed maize ubitiquitin gene (Bruce et al., 1989, Proc. Natl. Acad. Sci. USA 86:9692-9696), and one of the eight expression plasmids containing 5' deletions of the cystatin-1 gene promoter, as described above. The molar concentration of pAHC 18 was half of that of the reporter plasmid directing expression of β-glucuronidase. Incubation of the protoplasts with 1 μM gibberellic acid or 1 μM abscisic acid were performed in order to analyse possible, regulative effects of the phytohormones on […] gene expression, and identify the location of possible hormone responsive cis-acting gene elements. After a 40-hour incubation at 20° C., the protoplasts were harvested and the level of β-glucuronidase and luciferase activities determined as described by Leah et al. (1994, supra). The relative β-glucuronidase activity in individual samples was calculated by dividing the measured activity by the measured luciferace activity, thereby allowing differences in transformation efficiency to be corrected for.

Row | Compound | activity derived from heterologously expressed enzymes [1] | relative expression of β-glucuronidase [2]
1 | C=C1C[C@]23C[C@@]1(O)CC[C@H]2[C@@]12C=C[C@H](O)[C@@](C)(C(=O)O1)[C@H]2[C@@H]3C(=O)O [gibberellic acid] | enhanced levels of activity | slight depression
2 | CC1=CC(=O)CC(C)(C)[C@@]1(O)/C=C/C(C)=C\C(=O)O [abscisic acid] |  | increased
